Values quoted from earlier work, collected in patent US11992485B2, “Analgesic formulations and methods for reduced postoperative nausea and vomiting and enhanced postoperative pain relief” (Hutchison Health, LLC, priority 2013, dated 2024).
Structures can show the parent of a compound that is named as a salt.

Experiments:
[1] = test system: Lumbar Laminectomy patients
[2] = Table 2: 12 hr., Rahmanian et al.

- % of patients with NO PONV (50 patients; Table 1: first 24-48 hours post-surgery, Patel et al.): 72%
- patients who developed PONV (50 patients; intrathecal, Patel): 28%
SMILES: CCCCN1CCCCC1C(=O)Nc1c(C)cccc1C (stereo not drawn) [Bupivacaine Hydrochloride]
- decrease of postoperative surgical pain compared with 30 ml Normal Saline ([1]; 30 mL of 0.25%, infiltrative field block at surgical closure, Rahmanian): no more effective than 30 ml Normal Saline
- Patients with MILD PAIN [1, 2]: 0%
- Patients with NO PAIN [1, 2]: 0%
- VAS scores at rest compared with control Normal Saline group ([1]; subjective linear VAS, Rahmanian): higher
